Experimental data: paper PMC5457628, “Inhibitors of ubiquitin E3 ligase as potential new antimalarial drug leads” (BMC Pharmacology & Toxicology, 2017)
Where two headings read alike, the source gives them in different places.

Key:
[1] = system: P. falciparum D6 (CQ-sensitive strain); assay: Antimalarial SYBR Green I-based fluorescence assay, PfD6; format: cell-based
Description: The medium of the culture was replaced every 48 h, flushed with a gas mixture of 90% N2, 5% CO2 and 5% O2 and incubated at 37 °C.
Only ring stages of the parasite were counted and adjusted to 2% parasitemia with 2% hematocrit. Stock solutions (10 mM) of the test inhibitors were prepared in DMSO. […] The maximum concentrations of E3 ligase inhibitors and CQ used in the assay were 50 μM and 500 nM respectively. The plates were incubated at 37 °C in 5% CO2, 5% O2, and 90% N2 environment for 48, 72, 96 and 120 h. After incubation, SYBR green with RBC lysis buffer was added to each well, and the plates were incubated for 1 h in the dark at room temperature. The standard antimalarial agent, CQ was tested as the positive control, and DMSO was tested as vehicle control. […] The anti-malarial activity (expressed as IC50 values) was determined by the dose-response analysis with XLfit©.

[2] = system: P. falciparum W2 (CQ-resistant strain); assay: Antimalarial SYBR Green I-based fluorescence assay, PfW2; format: cell-based; conditions: Plasmodium falciparum
Description: CQ-sensitive (D6, Sierra Leone) and -resistant (W2, Indochina) strains of P. falciparum cultures were obtained from Malaria Research and Reference Reagent Resource Center (MR4), USA and maintained at 5% hematocrit in complete culture medium (RPMI 1640 supplemented with 60 μg/mL amikacin, 27 mM NaHCO3 and 10% heat-inactivated normal human type A+ serum). The medium of the culture was replaced every 48 h, flushed with a gas mixture of 90% N2, 5% CO2 and 5% O2 and incubated at 37 °C.
CQ-sensitive P. falciparum D6 strain (Pf D6) and CQ-resistant P. falciparum W2 strain (Pf W2) were grown in RPMI 1640 medium supplemented with amikacin (60 μg/mL), NaHCO3 (27 mM) and 10% heat-inactivated normal human type A+ serum. Only ring stages of the parasite were counted and adjusted to 2% parasitemia with 2% hematocrit. Stock solutions (10 mM) of the test inhibitors were prepared in DMSO. The compounds were serially diluted in serum-free RPMI-1640 medium for testing at eight concentrations. The maximum concentrations of E3 ligase inhibitors and CQ used in the assay were 50 μM and 500 nM respectively. The plates were incubated at 37 °C in 5% CO2, 5% O2, and 90% N2 environment for 48, 72, 96 and 120 h. After incubation, SYBR green with RBC lysis buffer was added to each well, and the plates were incubated for 1 h in the dark at room temperature. The standard antimalarial agent, CQ was tested as the positive control, and DMSO was tested as vehicle control. Standard fluorescence was measured Fluostar Galaxy microplate reader (BMG Lab Technologies) at excitation wavelength of 485 nm and emission wavelength of 535 nm. The anti-malarial activity (expressed as IC50 values) was determined by the dose-response analysis with XLfit©.

[3] = In vitro cytotoxicity assay (AlamarBlue) against Vero cells; format: cell-based; conditions: African green monkey, Vero cells (kidney epithelial cells), mean ± SEM of duplicates, NC = not cytotoxic at highest concentration tested (50 μM inhibitors, 500 nM CQ), read-out: Vero Cell Cytotoxicity (IC50)
Description: The E3 ligase inhibitors were also tested against Vero cells (African green monkey kidney epithelial cells) and transformed non-dividing human monocytic (THP1) cells. The methods described earlier were used to measure cytotoxicity for Vero and THP1 cells. In brief, four days’ old Vero and THP1 cell cultures were diluted with RPMI medium to 25,000 cells/mL. Vero cells (100 μL per well) were seeded in a clear 96 well culture plate and incubated for 24 h at 37 °C in a 5% CO2 incubator to obtain confluent cells. Phorbol 12-myristate 13-acetate (PMA) (25 ng/mL) was added to THP1 cell culture to transform the cells to adherent macrophages. PMA treated THP1cells were dispensed into clear 96 well culture plates (200 μL/well; 25,000 cells/mL) and incubated at 37 °C in a 5% CO2 incubator for overnight. The test compounds were prepared in DMSO at 10 mM concentration. The compounds were serially diluted in RPMI medium with 2% FBS in the separate daughter plates, for testing at eight concentrations. The cells were washed with culture medium, replaced with the fresh medium and test compounds were added. The maximum concentration of E3 ligase inhibitors and CQ used in these assays were 50 μM and 500 nM respectively. DMSO was tested as vehicle control in these assays. The plates were incubated further in a CO2 incubator at 37 °C for 48 h. […]

[4] = In vitro cytotoxicity assay (AlamarBlue) against PMA-transformed THP1 cells; format: cell-based; conditions: human, PMA-transformed non-dividing THP1, mean ± SEM of duplicates, NC = not cytotoxic at highest concentration tested (50 μM inhibitors, 500 nM CQ), read-out: THP1 Cell Cytotoxicity (IC50)
Description: The E3 ligase inhibitors were also tested against Vero cells (African green monkey kidney epithelial cells) and transformed non-dividing human monocytic (THP1) cells. The methods described earlier were used to measure cytotoxicity for Vero and THP1 cells. In brief, four days’ old Vero and THP1 cell cultures were diluted with RPMI medium to 25,000 cells/mL. Vero cells (100 μL per well) were seeded in a clear 96 well culture plate and incubated for 24 h at 37 °C in a 5% CO2 incubator to obtain confluent cells. Phorbol 12-myristate 13-acetate (PMA) (25 ng/mL) was added to THP1 cell culture to transform the cells to adherent macrophages. PMA treated THP1cells were dispensed into clear 96 well culture plates (200 μL/well; 25,000 cells/mL) and incubated at 37 °C in a 5% CO2 incubator for overnight. The test compounds were prepared in DMSO at 10 mM concentration. The compounds were serially diluted in RPMI medium with 2% FBS in the separate daughter plates, for testing at eight concentrations. The cells were washed with culture medium, replaced with the fresh medium and test compounds were added. The maximum concentration of E3 ligase inhibitors and CQ used in these assays were 50 μM and 500 nM respectively. DMSO was tested as vehicle control in these assays. The plates were incubated further in a CO2 incubator at 37 °C for 48 h. After 48 h, 10 μL of AlamarBlue® was added to each well, and the plates were incubated in a CO2 incubator at 37 °C for overnight. […] IC50 values were computed by analyzing dose-response curves with XLfit©.

[5] = system: P. falciparum D6 strain (PfD6); assay: Stage specific imaging analysis: parasitemia and differential stage counts in synchronized PfD6 culture (Giemsa smears); format: cell-based, Plasmodium falciparum; conditions: CQ 50 nM; for overall parasitemia: synchronized PfD6, ~6% parasitemia at 0 h, JNJ 26854165 5 μM; for effect on parasitemia as compared to vehicle control: HLI 373 5 μM, Nutlin 3 35 μM
Description: The stage-specific activity of the lead compounds was tested against Pf D6. […] The culture was synchronized by 5% sorbitol treatment as previously described. The synchronized culture of PfD6, with ~6% parasitemia and >90% of the parasite in ring stage, was used for these assays. Stock solutions (10 mM) of the test inhibitors were prepared in DMSO. […] The effect of the compounds was monitored after every 8 h (0, 8, 16, 24, 32, 40 and 48 h) by preparing thin smears of the infected erythrocytes. The slides were stained with Giemsa, and digital images of the parasite were captured with Nikon Eclipse microscope under bright field using NIS-element imaging software. The images were analyzed for the parasite stages and morphological changes (if any) in the parasite. The levels of parasitemia and differential parasitemia (relative percentage of different parasite stages) counts were also measured. At least one thousand erythrocytes (total- infected & uninfected) were counted from each slide for determination of the level of parasitemia and differential parasite stage counts.

MDM2 = conditions: read-out: Ki, MDM 2 inhibitor; cited from earlier work
[6] = Plasmodium falciparum, D6; 48-120 h; read-out: IC50 against PfD6
[7] = Plasmodium falciparum, D6; 48 h incubation; mean ± SEM of duplicates; NA = not active at highest concentration tested (50 μM inhibitors, 500 nM CQ); read-out: P. falciparum D6 (CQ-sensitive strain) IC50
[8] = Plasmodium falciparum, D6; 72 h incubation; mean ± SEM of duplicates; NA = not active at highest concentration tested (50 μM inhibitors, 500 nM CQ); read-out: P. falciparum D6 (CQ-sensitive strain) IC50
[9] = Plasmodium falciparum, D6; 96 h incubation; mean ± SEM of duplicates; NA = not active at highest concentration tested (50 μM inhibitors, 500 nM CQ); read-out: P. falciparum D6 (CQ-sensitive strain) IC50
[10] = Plasmodium falciparum, D6; 120 h incubation; mean ± SEM of duplicates; NA = not active at highest concentration tested (50 μM inhibitors, 500 nM CQ); read-out: P. falciparum D6 (CQ-sensitive strain) IC50
[11] = W2, 48-120 h, read-out: IC50 against PfW2
[12] = W2, 48 h incubation, mean ± SEM of duplicates, NA = not active at highest concentration tested (50 μM inhibitors, 500 nM CQ), read-out: P. falciparum W2 (CQ-resistant strain) IC50
[13] = W2, 72 h incubation, mean ± SEM of duplicates, NA = not active at highest concentration tested (50 μM inhibitors, 500 nM CQ), read-out: P. falciparum W2 (CQ-resistant strain) IC50
[14] = W2, 96 h incubation, mean ± SEM of duplicates, NA = not active at highest concentration tested (50 μM inhibitors, 500 nM CQ), read-out: P. falciparum W2 (CQ-resistant strain) IC50
[15] = W2, 120 h incubation, mean ± SEM of duplicates, NA = not active at highest concentration tested (50 μM inhibitors, 500 nM CQ), read-out: P. falciparum W2 (CQ-resistant strain) IC50
[16] = Plasmodium falciparum, D6, 48 h; read-out: IC90 against PfD6 (concentration almost equivalent to IC90)
[17] = 40 h post-treatment, vehicle control 6.90
[18] = 48 h post-treatment, vehicle control 5.28%

Structure (SMILES) | IC50 [1, 6] | IC50 [1, 7] | IC50 [1, 8] | IC50 [1, 9] | IC50 [1, 10] | IC50 [2, 11] | IC50 [2, 12] | IC50 [2, 13] | IC50 [2, 14] | IC50 [2, 15] | IC90 [1, 16] | IC50 at 48 h [3] | IC50 at 48 h [4] | overall parasitemia [5, 17] | overall parasitemia [5, 18] | effect on parasitemia as compared to vehicle control ([5]; 40 h post-treatment) | further results
CCc1c2ccccc2c(CSC(=N)N)c2ccccc12 [NSC 146109] | < 6 µM | 5.24 ± 0.2 µM | 4.8 ± 0.05 µM | 3.09 ± 0.08 µM | 2.52 ± 0.39 µM | < 6 µM | 2.07 ± 0.22 µM | 2.63 ± 0.05 µM | 2.91 ± 0.03 µM | 3.23 ± 0.03 µM |  | 5.27 ± 0.05 µM | 1.2 ± 0.28 µM |  |  |  | 
c1ccc2c(CCNc3ccc(Nc4ccncc4)cc3)c[nH]c2c1 [JNJ 26854165, Serdemetan] | < 6 µM | 2.17 ± 0.004 µM | 2.93 ± 0.03 µM | 1.41 ± 0.03 µM | 1.46 ± 0.12 µM | < 6 µM | 1.86 ± 0.03 µM | 1.74 ± 0.27 µM | 2.28 ± 0.03 µM | 2.02 ± 0.36 µM | ~5 µM |  | 22.4 ± 0.56 µM | 1.90% | 1.76% |  | 
CCN(CC)CCCC(C)Nc1ccnc2cc(Cl)ccc12 (centres unmarked) [Chloroquine] |  |  |  |  |  |  |  |  |  |  |  |  |  | 2.40% | 1.92% | significantly decreased the overall parasitemia | IC90 ([1]; Plasmodium falciparum, D6, 48 h, read-out: IC90 against PfD6 (concentration almost equivalent to IC90)): ~0.05 µM; IC50 ([1]; Plasmodium falciparum, D6, 48 h, read-out: P. falciparum D6 (CQ-sensitive strain) IC50): 0.03 ± 0.001 µM; IC50 ([1]; Plasmodium falciparum, D6, 72 h, read-out: P. falciparum D6 (CQ-sensitive strain) IC50): 0.02 ± 0.004 µM; IC50 ([1]; Plasmodium falciparum, D6, 96 h, read-out: P. falciparum D6 (CQ-sensitive strain) IC50): 0.02 ± 0.001 µM; IC50 ([1]; Plasmodium falciparum, D6, 120 h, read-out: P. falciparum D6 (CQ-sensitive strain) IC50): 0.02 ± 0.001 µM; IC50 ([2]; W2, 48 h, read-out: P. falciparum W2 (CQ-resistant strain) IC50): 0.19 ± 0.004 µM; IC50 ([2]; W2, 72 h, read-out: P. falciparum W2 (CQ-resistant strain) IC50): 0.19 ± 0.007 µM; IC50 ([2]; W2, 96 h, read-out: P. falciparum W2 (CQ-resistant strain) IC50): 0.2 ± 0.001 µM; IC50 ([2]; W2, 120 h, read-out: P. falciparum W2 (CQ-resistant strain) IC50): 0.19 ± 0.002 µM; parasites arrested at ring stage ([5]; 40 and 48 h post-treatment): more than 50%; parasites arrested at ring stage ([5]; 16 h post-treatment): around 50%
O=C1c2ccccc2-c2nc3nonc3nc21 [SMER 3] |  | 12.1 ± 0.68 µM | 49 ± 0.94 µM |  |  |  | 20.6 ± 5.19 µM | 23.7 ± 3.53 µM | 45.8 ± 0.09 µM | 48.6 ± 0.49 µM |  | 16 ± 0.55 µM | 5.8 ± 0.28 µM |  |  |  | 

Second part, led by results:

IC50 [1, 6] | IC50 [1, 7] | IC50 [1, 8] | IC50 [1, 9] | IC50 [1, 10] | IC50 [2, 11] | IC50 [2, 12] | IC50 [2, 13] | IC50 [2, 14] | IC50 [2, 15] | IC90 [1, 16] | Structure (SMILES) | IC50 at 48 h [3] | IC50 at 48 h [4] | overall parasitemia [5, 17] | overall parasitemia [5, 18] | effect on parasitemia as compared to vehicle control ([5]; 40 h post-treatment) | further results
 | 12.8 ± 1.34 µM | 19.4 ± 0.34 µM | 15.9 ± 1.24 µM | 20 ± 4.52 µM |  | 18.6 ± 1.6 µM | 15.72 ± 0.04 µM | 15.4 ± 0.54 µM | 15.6 ± 2.17 µM | ~35 µM | COc1ccc(C2=N[C@@H](c3ccc(Cl)cc3)[C@@H](c3ccc(Cl)cc3)N2C(=O)N2CCNC(=O)C2)c(OC(C)C)c1 (racemic) [Nutlin 3] |  | 35.2 ± 2.76 µM |  |  | significantly reduced | 
 | 32.2 ± 4.57 µM | 37 ± 1.8 µM |  |  |  | 28.7 ± 4.01 µM | 39 ± 2.71 µM |  |  |  | Cc1ccc2ccc(C(Nc3ccccc3)c3ccccc3)c(O)c2n1 (centres unmarked) [NSC 66811] |  | 37.8 ± 4.1 µM |  |  |  | Ki (MDM2): 0.12 µM
